Columns and labels:
TNF = test: PBMC assay: TNF cytokine levels after LPS stimulation (MSD); format: cell-based; details: Homo sapiens, PBMC, 6 h, human PBMCs, 100 ng/ml LPS for 6 hrs
How it was run: (§1)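 Cryopreserved human PBMCs (7.5×10^4/well) in RPMI/10% FBS were preincubated with serially diluted compound for 30 min at 37 °C, then stimulated with 100 ng/ml LPS for 6 h. Supernatant IL-1β and TNF measured by MSD. IC50 derived for IL-1β, EC50 for TNF.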

IL-1β = test: PBMC assay: inhibition of IL-1β release after LPS stimulation (MSD); format: cell-based; details: Homo sapiens, PBMC, 6 h, human PBMCs, 100 ng/ml LPS for 6 hrs, MSD, 96 well plates; read-out: IL1β IC50
How it was run: as §1

| EC50 (TNF) [nM] | IC50 (IL-1β) [nM] | melting point [°C] | SMILES |
| --- | --- | --- | --- |
| 15500 | 164 | 222.09 | CC(C)c1nn(CC(=O)Nc2ccc3cncn3c2)c(=O)c2ccc(C(F)(F)F)cc12 [Final Cpd X20] |
| > 20000 | 137 | 238.55 | CC(C)c1nn(CC(=O)Nc2ccc3nccn3n2)c(=O)c2ccc(C(F)(F)F)cc12 [Final Cpd X16] |
| > 20000 | 114 | 295.46 | CC(C)c1nn(CC(=O)Nc2ccc3nc[nH]c3n2)c(=O)c2ccc(C(F)(F)F)cc12 [Final Cpd X13] |
| 5580 | 30 | 246.08 | CC(C)c1nn(CC(=O)Nc2ccc3nncn3n2)c(=O)c2ccc(C(F)(F)F)cc12 [Final Cpd X2, N-([1,2,4]triazolo[4,3-b]pyridazin-6-yl)-2-(4-isopropyl-1-oxo-6-(trifluoromethyl)phthalazin-2(1H)-yl)acetamide] |
